Experimental data as given in patent US6861427B2, “Azabicyclylmethyl derivatives of 2,3-dihydro-1,4-dioxino[2,3-f]quinoline as 5-HT1A antagonists” (Wyeth, priority 2001, dated 2005).
pIC50, pKi: −log10 of the molar value. Counter-ions that a name gives are not always drawn.

How the values were obtained:
[1] = target: T1, cloned human 5-HT1A receptors (Homo sapiens, UniProt P08908); experiment: 35S-GTPγS binding assay, antagonist activity versus 8-OH-DPAT; type: biochemical; conditions: reversal of 8-OH-DPAT-stimulated 35S-GTPγS binding; for pIC50: membranes with cloned human 5-HT1A receptors, read-out: 5-HT1A Function IC50
T1 construct: expressed in transfected cells
T1 sequence (P08908 1-422): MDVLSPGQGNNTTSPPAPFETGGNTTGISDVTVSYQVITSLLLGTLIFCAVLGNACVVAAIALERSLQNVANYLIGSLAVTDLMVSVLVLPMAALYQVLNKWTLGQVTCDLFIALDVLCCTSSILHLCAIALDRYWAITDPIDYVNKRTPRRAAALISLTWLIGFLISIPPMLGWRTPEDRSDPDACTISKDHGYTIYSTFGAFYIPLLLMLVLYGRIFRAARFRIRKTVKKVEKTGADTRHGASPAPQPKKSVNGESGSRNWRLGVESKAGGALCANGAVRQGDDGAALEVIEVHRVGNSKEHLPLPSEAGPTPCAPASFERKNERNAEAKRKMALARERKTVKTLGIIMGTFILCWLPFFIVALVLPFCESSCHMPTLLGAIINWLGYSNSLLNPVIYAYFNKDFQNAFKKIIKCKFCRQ
Description: Antagonist activity at 5-HT1A receptors was established by using a ^35S-GTPγS binding assay similar to that used by Lazareno and Birdsall (Br. J. Pharmacol. 109: 1120, 1993), in which the test compound's ability to affect the binding of ^35S-GTPγS to membranes containing cloned human 5-HT1A receptors was determined. Agonists produce an increase in binding whereas antagonists produce no increase but rather reverse the effects of the standard agonist 8-OH-DPAT. The test compound's maximum inhibitory effect is represented as the Imax, while its potency is defined by the IC50.

[2] = target: T2, human 5-HT1A receptors (Homo sapiens, UniProt P08908); experiment: [3H] 8-OH-DPAT displacement from the 5-HT1A serotonin receptor (CHO cells); type: binding; conditions: displacement of [3H] 8-OH-DPAT, CHO cells stably transfected with human 5-HT1A receptors; read-out: 5-HT1A Receptor Affinity KI
T2 construct: expressed in transfected cells; host or cells: CHO cells
T2 sequence (P08908 1-422): T1 sequence (P08908 1-422)
From the text: High affinity for the serotonin 5-HT1A receptor was established by testing the claimed compound's ability to displace [^3H] 8-OH-DPAT (dipropylaminotetralin) from the 5-HT1A serotonin receptor following a modification of the procedure of Hall et al., J. Neurochem. 44, 1685 (1985) which utilizes CHO cells stably transfected with human 5-HT1A receptors.

| Compound | melting point [°C] | 5-HT1A Function Imax (maximum inhibitory effect) [1] | pIC50 [1] | pKi [2] |
| --- | --- | --- | --- | --- |
| Cc1ccc2c3c(ccc2n1)OCC(CN1C2CCC1CC(O)(c1cccc(C(F)(F)F)c1)C2)O3 (stereo not shown) (as salt: fumarate) (hydrate or solvate) [Example 2, 8-{[8-Methyl-2,3-dihydro[1,4]dioxino[2,3-f]quinolin-2-yl]methyl}-3-[3-(trifluoromethyl)phenyl]-8-azabicyclo[3.2.1]octan-3-ol] | 146 to 150 | – | – | – |
| Cc1ccc2c3c(ccc2n1)OCC(CN1C2CCC1CC(O)(c1ccc4ccccc4c1)C2)O3 (stereo not shown) (as salt: fumarate) (hydrate or solvate) [Example 3, 8-{[8-Methyl-2,3-dihydro[1,4]dioxino[2,3-f]quinolin-2-yl}methyl]-3-(2-naphthyl)-8-azabicyclo[3.2.1]octan-3-ol] | 218 to 218.5 | – | – | – |
| Cc1ccc2c3c(ccc2n1)OCC(CN1C2CCC1CC(O)(c1ccccc1)C2)O3 (stereo not shown) [Example 1, 8-{[8-Methyl-2,3-dihydro[1,4]dioxino[2,3-f]quinolin-2-yl]methyl}-3-phenyl-8-azabicyclo[3.2.1]octan-3-ol] | 162 to 165 | (98.0) | 8.16 | 8.59 |
| Cc1ccc2c3c(ccc2n1)OCC(CN1C2CCC1CC(O)(c1cccc(C(F)(F)F)c1)C2)O3 (stereo not shown) [Example 2, 8-{[8-Methyl-2,3-dihydro[1,4]dioxino[2,3-f]quinolin-2-yl]methyl}-3-[3-(trifluoromethyl)phenyl]-8-azabicyclo[3.2.1]octan-3-ol] | – | – | – | 8.17 |
| Cc1ccc2c3c(ccc2n1)OCC(CN1C2CCC1CC(O)(c1ccc4ccccc4c1)C2)O3 (stereo not shown) [Example 3, 8-{[8-Methyl-2,3-dihydro[1,4]dioxino[2,3-f]quinolin-2-yl}methyl]-3-(2-naphthyl)-8-azabicyclo[3.2.1]octan-3-ol] | – | (100) | 7.26 | 8.46 |
